“Also recorded” adds a separate entry of the source.

Assay [1] relates to LNCaP cells transduced with AR F876L construct. The assay is described as follows: Anti-proliferation in LNCaP F876L (CellTiterGlo). In kind it is cell-based. The following applies: Charcoal Stripped Serum media, 7 days. As to the method: FIG. 3. Anti-proliferation in LNCaP F876L. […] LNCaP cells transduced with AR F876L construct were cultured in Charcoal Stripped Serum containing media.
LNCaP cells transduced with AR F876L construct were cultured in Charcoal Stripped Serum containing media. […] CellTiterGlo reagent (Promega) was employed to assess proliferation.
In general terms: Cellular ATP, detected with luciferase, serves as a proxy for viable cell number.

The target of a further assay is T1, AR (Homo sapiens, UniProt P10275+P40337, T878A).
T1 construct: endogenous in cells; host or cells: LNCaP cells
T1 sequence (P10275 whole entry T878A): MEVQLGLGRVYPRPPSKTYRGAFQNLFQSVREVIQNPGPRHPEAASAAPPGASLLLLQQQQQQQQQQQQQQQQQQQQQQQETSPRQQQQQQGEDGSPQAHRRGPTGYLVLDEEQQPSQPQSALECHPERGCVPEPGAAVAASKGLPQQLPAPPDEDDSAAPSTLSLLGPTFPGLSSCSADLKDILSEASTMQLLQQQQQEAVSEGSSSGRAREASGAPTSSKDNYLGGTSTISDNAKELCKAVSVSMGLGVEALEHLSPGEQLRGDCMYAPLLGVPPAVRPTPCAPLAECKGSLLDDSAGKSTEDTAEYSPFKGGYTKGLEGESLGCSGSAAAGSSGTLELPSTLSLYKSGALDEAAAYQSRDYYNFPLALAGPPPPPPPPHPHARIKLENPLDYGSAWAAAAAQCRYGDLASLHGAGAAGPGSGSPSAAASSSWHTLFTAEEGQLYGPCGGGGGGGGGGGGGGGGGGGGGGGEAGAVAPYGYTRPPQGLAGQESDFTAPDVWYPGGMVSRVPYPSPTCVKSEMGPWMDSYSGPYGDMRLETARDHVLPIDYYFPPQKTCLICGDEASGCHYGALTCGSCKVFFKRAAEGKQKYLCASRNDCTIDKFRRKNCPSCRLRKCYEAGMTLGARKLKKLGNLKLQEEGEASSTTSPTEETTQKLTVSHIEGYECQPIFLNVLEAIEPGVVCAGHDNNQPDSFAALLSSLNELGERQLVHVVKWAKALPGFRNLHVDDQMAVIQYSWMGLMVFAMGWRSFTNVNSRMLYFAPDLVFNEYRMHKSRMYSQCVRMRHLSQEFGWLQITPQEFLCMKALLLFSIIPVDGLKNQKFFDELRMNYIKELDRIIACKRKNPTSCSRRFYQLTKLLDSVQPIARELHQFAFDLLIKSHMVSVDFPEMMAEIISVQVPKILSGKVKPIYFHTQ
T1 sequence (P40337 whole entry): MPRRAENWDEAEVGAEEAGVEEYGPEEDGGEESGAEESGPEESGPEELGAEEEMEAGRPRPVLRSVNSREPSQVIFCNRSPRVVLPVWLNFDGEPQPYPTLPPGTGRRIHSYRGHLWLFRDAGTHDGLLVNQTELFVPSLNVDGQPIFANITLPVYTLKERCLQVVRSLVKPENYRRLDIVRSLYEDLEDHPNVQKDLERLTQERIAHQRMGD
T1 sequence (Q15369 whole entry partner): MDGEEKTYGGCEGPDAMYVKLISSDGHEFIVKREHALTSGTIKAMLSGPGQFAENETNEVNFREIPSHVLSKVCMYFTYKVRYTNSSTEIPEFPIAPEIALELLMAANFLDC
T1 sequence (Q15370 whole entry partner): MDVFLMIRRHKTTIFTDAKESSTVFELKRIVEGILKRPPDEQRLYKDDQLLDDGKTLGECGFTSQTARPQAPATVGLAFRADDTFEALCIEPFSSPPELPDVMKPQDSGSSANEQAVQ
T1 sequence (Q13617 whole entry partner): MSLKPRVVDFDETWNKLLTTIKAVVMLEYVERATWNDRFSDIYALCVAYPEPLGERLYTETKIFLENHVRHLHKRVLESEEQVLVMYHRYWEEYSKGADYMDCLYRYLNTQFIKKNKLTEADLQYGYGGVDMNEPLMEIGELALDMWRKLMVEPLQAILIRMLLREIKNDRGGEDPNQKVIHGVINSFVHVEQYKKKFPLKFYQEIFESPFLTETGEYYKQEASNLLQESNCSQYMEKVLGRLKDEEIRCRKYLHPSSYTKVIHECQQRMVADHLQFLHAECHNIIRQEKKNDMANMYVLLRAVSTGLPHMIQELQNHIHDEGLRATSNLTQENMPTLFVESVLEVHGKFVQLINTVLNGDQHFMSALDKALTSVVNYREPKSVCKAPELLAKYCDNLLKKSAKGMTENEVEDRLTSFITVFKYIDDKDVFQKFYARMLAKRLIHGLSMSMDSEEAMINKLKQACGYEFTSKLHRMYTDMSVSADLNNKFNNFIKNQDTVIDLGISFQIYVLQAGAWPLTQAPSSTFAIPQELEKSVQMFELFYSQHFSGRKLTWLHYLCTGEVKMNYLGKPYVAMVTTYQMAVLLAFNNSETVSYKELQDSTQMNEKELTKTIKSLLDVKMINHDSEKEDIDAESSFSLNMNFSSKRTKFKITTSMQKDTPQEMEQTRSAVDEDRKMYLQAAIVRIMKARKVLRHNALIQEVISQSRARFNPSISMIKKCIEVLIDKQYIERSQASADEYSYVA
T1 sequence (P62877 whole entry partner): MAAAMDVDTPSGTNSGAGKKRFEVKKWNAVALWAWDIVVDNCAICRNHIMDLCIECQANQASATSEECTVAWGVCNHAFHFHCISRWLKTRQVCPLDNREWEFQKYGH
The assay is described as follows: AR degradation of PROTAC is E3 ligase dependent (LNCaP cells). The note with it: 24 hours. It is filed as cell-based. An excerpt:
FIG. 7A and FIG. 7B. AR degradation of PROTAC is E3 ligase dependent.

The test system of the next assay is Androgen Receptor. The assay can be described thus: Androgen Receptor ELISA assay (PathScan AR ELISA) in LNCaP and/or VCaP cells. In kind it is cell-based. The following applies: highest percentage of Androgen Receptor degradation observed. For orientation: In an ELISA, binding on a coated surface is turned into a signal by an enzyme label.
The subject of another assay is VCaP xenograft. The assay is described as follows: Tumor growth inhibition in VCaP xenograft model. The following applies: castrated CB17 scid mice with VCaP tumors; enzalutamide PO, QD, 30 mpk; Example 163 IP, QD, 30, 10 and 3 mpk. In kind it is in vivo. From the text: FIG. 6. Tumor growth inhibition in VCaP xenograft model. VCaP cells were implanted into CB17 scid mice subcutaneously. Once the tumors were palpable, the mice were castrated, leading to temporary tumor stasis.
VCaP cells were implanted into CB17 scid mice subcutaneously. Once the tumors were palpable, the mice were castrated, leading to temporary tumor stasis.

For the next assay, the system named is prostate. The assay can be described thus: Prostate involution in C57B6 mouse model. It is filed as in vivo. The following applies: 12-week old male C57BL/6 mice; IP, QD, 1 and 3 mpk for 10 days. An excerpt: FIG. 5. Prostate involution in C57B6 mouse model.

As to `Cc1ncsc1-c1ccc(CNC(=O)[C@@H]2C[C@@H](O)CN2C(=O)[C@@H](NC(=O)COCCCOCCCCCOc2ccc(N3C(=S)N(c4ccc(C#N)c(C(F)(F)F)c4)C(=O)C3(C)C)cc2)C(C)(C)C)cc1` [Example 1, (2S,4R)-1-((S)-2-(2-(3-(5-(4-(3-(4-cyano-3-(trifluoromethyl)phenyl)-5,5-dimethyl-4-oxo-2-thioxoimidazolidin-1-yl)phenoxy)pentyloxy)propoxy)acetamido)-3,3-dimethylbutanoyl)-4-hydroxy-N-(4-(4-methylthiazol-5-yl)benzyl)pyrrolidine-2-carboxamide], the “proliferation of LNCaP F876L cells (agonist activity)” value in assay [1] is reported as “did not exhibit agonist activity; also recorded: Anti-proliferation in LNCaP F876L cells observed”. The “AR degradation in LNCaP cells” value at AR was “significant degradation of AR”. Besides, the “AR degradation in LNCaP cells in the presence of VHL E3 ligase ligand compound B” value at AR (10 uM compound B) was “greatly diminishes the AR degradation activity”.

For the compound `Cc1ncsc1-c1ccc(CNC(=O)[C@@H]2C[C@@H](O)CN2C(=O)[C@@H](NC(=O)COCCOCCOc2ccc(-c3ccc(N4C(=S)N(c5ccc(C#N)c(C(F)(F)F)c5)C(=O)C4(C)C)cc3)cc2)C(C)(C)C)cc1` [Example 67, (2S,4R)-1-((S)-2-(2-(2-(2-(4′-(3-(4-cyano-3-(trifluoromethyl)phenyl)-5,5-dimethyl-4-oxo-2-thioxoimidazolidin-1-yl)biphenyl-4-yloxy)ethoxy)ethoxy)acetamido)-3,3-dimethylbutanoyl)-4-hydroxy-N-(4-(4-methylthiazol-5-yl)benzyl)pyrrolidine-2-carboxamide], the “LNCaP Dmax (%)” value in the assay on Androgen Receptor is 72.1%.

For the compound `Cc1ncsc1-c1ccc(CNC(=O)[C@@H]2C[C@@H](O)CN2C(=O)[C@@H](NC(=O)COCCCCOc2ccc(C(=O)N[C@H]3C(C)(C)[C@H](Oc4ccc(C#N)c(Cl)c4)C3(C)C)cc2)C(C)(C)C)cc1` [Example 163, (2S,4R)-1-[(2S)-3,3-dimethyl-2-{2-[4-(4-{[trans-3-(3-chloro-4-cyanophenoxy)-2,2,4,4-tetramethylcyclobutyl]carbamoyl}phenoxy)butoxy]acetamido}butanoyl]-4-hydroxy-N-{[4-(4-methyl-1,3-thiazol-5-yl)phenyl]methyl}pyrrolidine-2-carboxamide], the tumor growth inhibition result in the assay with VCaP xenograft is “Tumor growth inhibition was observed in all treatment arms”. For the same compound, in the assay on prostate, the “prostate weights (prostate involution)” value is given as “significant reduction in prostate weights; also recorded: significant prostate involution in mice at very low doses”.

For the compound `CNC(=O)c1ccc(N2C(=S)N(c3ccc(C#N)c(C(F)(F)F)c3)C(=O)C2(C)C)cc1F` [enzalutamide, reference compound], in the assay with VCaP xenograft, the tumor growth inhibition entry is “Tumor growth inhibition was observed in all treatment arms”.

Source of the values: patent publication US20160214972A1, “COMPOUNDS AND METHODS FOR THE TARGETED DEGRADATION OF ANDROGEN RECEPTOR” (Arvinas, Inc., priority 2015, published 2016).
